{
  "source": "patent US5688767A",
  "about": "“Treatment of endotoxin-associated disorders with cationic peptides” (priority 1996, dated 1997)",
  "key": {"Gram-negative bacteria": {"tested_on": "Gram-negative bacteria", "assay": "MIC range over a broad range of Gram-negative bacteria", "type": "cell-based", "conditions": "broad range of Gram-negative bacteria (Table 9)", "description": "CEME and CEMA were able to kill a broad range of Gram-negative bacteria with MICs ranging from 1-16 μg/ml (Table 9). These bacteria included many of the life-threatening gram-negative pathogens associated with septicemia and endotoxic shock.\n(§1) Bacteria included the Bort strain of E. coli (Bortolussi, et al., Inf. Immun., 25:293, 1979) that was originally derived from a case of neonatal meningitis, and which is therefore considered a relevant pathogenic strain to study, and the 0111:B4 strain of E. coli (kindly provided by Dr. D. Morrison) which is a standard source of endotoxin. (Kelly, et al., Inf. Immun., 59:4491, 1991). In addition, P. aeruginosa PA01 strain H103, P. aeruginosa M2, P. aeruginosa K799, Eschericha coli UB 1005, Enterobacter cloacae 218S, Salmonella typhimurium MS7953s, Klebsiella pneumoniae ATCC 13883, Xanthomonas maltophilia ATCC 13637, and Acinetobacter calcoacetious 8193 were employed. LPS was obtained from E. coli Bort by the technique of Westphal and Jann, (Westphal, et al., Acad. Press, Inc. NY., 5:83) and from P. aeruginosa H103 by the method of Darveau and Hancock, (Darveau, et al., J. Bacteriol, 155:831, […]). E. coli 0111:B4 LPS was purchased from Sigma."}, "[1]": {"assay": "Lethality of peptide alone in mice", "type": "in vivo"}, "S. aureus": {"tested_on": "S. aureus", "assay": "microbe, parasite or virus in culture", "type": "cell-based, Staphylococcus aureus", "conditions": "fragments of CEMA, strain not given", "description": "(§2) The minimum inhibitory concentrations of (MIC) of CEME, CEMA and melittin were determined for a number of different bacteria (Table 2). Briefly, cells were grown overnight at 37° C. in LB-S (Luria broth without any salt supplement) and diluted one in 10,000 in the same medium to give concentrations of about 10^4 to 10^5 CFU/ml. The broth dilutions were set up in a 96 well microtiter plate by putting 200 μl of LB-S containing the initial concentration of antibiotic or compound in column 1 and 100 μl of the same medium in columns 2-12. The compounds were diluted by taking 100 μl of broth from column 1 and mixing it with column 2, resulting in a one in two dilution. This was continued to column 10. Finally, 10 μl of bacteria were pipetted into columns 1-11, and the plates incubated overnight at 37° C. The next day the plates were scored for growth in the wells, and the MIC determined."}, "Candida albicans": {"tested_on": "Candida albicans", "assay": "MIC, same assay", "type": "cell-based", "conditions": "fragments of CEMA"}, "P. aeruginosa": {"tested_on": "P. aeruginosa", "assay": "microbe, parasite or virus in culture", "type": "cell-based, Pseudomonas aeruginosa", "conditions": "fragments of CEMA, strain not given", "description": "as §2, §1"}, "E. coli": {"tested_on": "E. coli", "assay": "microbe, parasite or virus in culture", "type": "cell-based, Escherichia coli", "conditions": "fragments of CEMA, strain not given", "description": "as §2, §1"}, "[2]": {"tested_on": "P. aeruginosa H309 or E. cloacae 218R1", "assay": "Lysozyme lysis assay (outer membrane permeabilization)", "type": "cell-based, Pseudomonas aeruginosa; Enterobacter cloacae", "conditions": "50 μg/ml lysozyme, varying concentrations of compound", "description": "Membrane permeabilization by polycationic compounds was measured in two different assays. The first assay measured membrane disruption by the ability of lysozyme to reach the periplasm and cause cell lysis. […] The uptake of lysozyme into whole cells due to membrane permeabilization by various compounds was previously described in Hancock, et al., Antimicrobial Agents and Chemo., 19:777, 1981. Overnight cultures of P. aeruginosa H309 or E. cloacae 218R1 grown in LB-S were diluted 1 in 50 in fresh medium and grown to an OD600 =0.5-0.6. The cells were harvested in a Silencer H-103N clinical centrifuge at 1800 g for 10 min, washed once with one volume of assay buffer (5 mM HEPES pH 7.2, 5 mM KCN), and resuspended in the same buffer to an OD600 of 0.5. Assays consisted of 600 μl of cells with 50 μg/ml of chicken egg white lysozyme and varying concentrations of cationic compounds. Cell lysis was measured as a decrease in the OD600 in a Perkin-Elmer dual beam spectrophotometer. Parallel experiments performed without lysozyme enabled the measurement of the lytic activity of the compounds themselves. To test whether or not permeability to lysozyme could be inhibited by divalent cations, various concentrations of MgCl2 were added to the assay after the addition of lysozyme and before the addition of the test compound."}, "E. coli strain DC2": {"tested_on": "E. coli strain DC2", "assay": "Antibacterial activity on acid-urea gel overlaid with bacteria", "type": "cell-based, Escherichia coli", "conditions": "≈10^5 E. coli strain DC2, overnight at 37° C.", "description": "A sample of the partially purified CEME protein was electrophoresed on a 15% acid-urea gel, which separates proteins based on charge and mass (Panyim and Chalkey, Arch. Biochem. Biophys., 130:337, 1969). The pH of the buffer is acidic (≈pH 5.0) and the polarity is reversed such that proteins migrate to the cathode. Therefore, the small cationic peptides run relatively quickly through the gel and thus can be easily identified. Antibacterial activity was tested as previously described (Hultmark, Eur. J. Biochem., 106:7, 1980). The gel was incubated in Mueller Hinton broth+0.2M NaPO4 pH 7.4 for 1 hr. It was overlaid with 5 mls of the same media containing 0.6% agar and ≈10^5 E. coli strain DC2, and then again with 5 ml of the same media containing only 0.6% agar. […] Melittin is used as a positive control due to its antibacterial activity and similarity in size and PI values."}, "[3]": {"tested_on": "P. aeruginosa H309 or E. cloacae 218R1", "type": "cell-based, Pseudomonas aeruginosa; Enterobacter cloacae", "conditions": "10 μM NPN", "excerpt": "The second assay determined membrane permeability by the ability of 1-N-phenylnaphthylamine(NPN), a small fluorescent probe, to insert itself into the membrane. Normally, very little NPN can penetrate the outer membrane, but in the presence of a membrane permeabilizer it can insert into the hydrophobic membrane resulting in an increase in fluorescence (FIGS. 7 and 8). This N-phenylnaphthylamine uptake assay was previously described by Loh, et al., Antimicrobial Agents and Chemo., 26:546, 1984. Cells were prepared exactly the same as for the lysozyme lysis assay. 1-N-phenylnaphthylamine(NPN) was dissolved in acetone at a concentration of 500 μM. NPN fluorescence was measured in a Perkin-Elmer 650-10S fluorescent spectrophotometer using excitation and emission wavelengths set to 350 nm and 420 nm respectively, with slit widths of 5 nm. The assay was standardized by adding 20 μl of NPN (final concentration of 10 μM) and 10 μl of 0.64 mg/ml of polymyxin B (final concentration of 6.4 μg/ml) into 1 ml of cells, and adjusting the resulting fluorescence to read 90% deflection (90 arbitrary units). Various compounds were tested by adding 10 μl of different concentrations to a cuvette containing 1 ml of cells and 10 μM NPN. Permeabilizing activity was designated as the total fluorescence minus the fluorescence due to NPN alone. Following the fluorescence measurement, the OD600 of the cells was taken to ensure no significant cell lysis had occurred."}},
  "data": [
    {"smiles": "CC[C@H](C)[C@H](NC(=O)CNC(=O)[C@@H](NC(=O)[C@H](CCCCN)NC(=O)[C@H](CCCCN)NC(=O)[C@H](Cc1ccccc1)NC(=O)[C@H](CC(C)C)NC(=O)[C@H](CCCCN)NC(=O)[C@H](Cc1c[nH]c2ccccc12)NC(=O)[C@@H](N)CCCCN)[C@@H](C)CC)C(=O)NCC(=O)N[C@@H](C)C(=O)N[C@H](C(=O)N[C@@H](CC(C)C)C(=O)N[C@@H](CCCCN)C(=O)N[C@H](C(=O)N[C@@H](CC(C)C)C(=O)N[C@H](C(=O)N[C@H](C(=O)NCC(=O)N[C@@H](CC(C)C)C(=O)N1CCC[C@H]1C(=O)N[C@@H](C)C(=O)N[C@@H](CC(C)C)C(=O)N[C@H](C(=O)N[C@@H](CO)C(=O)O)[C@@H](C)CC)[C@@H](C)O)[C@@H](C)O)C(C)C)C(C)C", "note": "[CEME]", "values": [
      {"measurement": "MICs, range over strains", "setting": "Gram-negative bacteria", "result": "1 to 16", "unit": "µg/mL"},
      {"measurement": "survival of mice given peptide alone", "setting": "[1]; 200 μg (8.7 mg/kg) alone", "result": "survived"},
      {"measurement": "% Mortality", "setting": "[1]; no LPS, peptide 200 ug", "result": 0, "unit": "%"},
      {"measurement": "dead/total", "setting": "[1]; no LPS, peptide 200 ug", "result": "0/5"}
    ]},
    {"smiles": "CC[C@H](C)[C@H](NC(=O)CN)C(=O)NCC(=O)N[C@@H](C)C(=O)N[C@H](C(=O)N[C@@H](CC(C)C)C(=O)N[C@@H](CCCCN)C(=O)N[C@H](C(=O)N[C@@H](CC(C)C)C(=O)N[C@H](C(=O)N[C@H](C(=O)NCC(=O)N[C@@H](CC(C)C)C(=O)N1CCC[C@H]1C(=O)N[C@@H](C)C(=O)N[C@@H](CC(C)C)C(=O)N[C@@H](CCCCN)C(=O)N[C@@H](CC(C)C)C(=O)N[C@H](C(=O)N[C@@H](CCCCN)C(=O)O)[C@@H](C)O)[C@@H](C)O)[C@@H](C)O)C(C)C)C(C)C", "note": "[MA]", "values": [
      {"measurement": "MIC", "setting": "S. aureus", "result": "greater than 64 ug/ml"},
      {"measurement": "MIC", "setting": "Candida albicans", "result": "greater than 64 ug/ml"},
      {"measurement": "MIC", "setting": "P. aeruginosa", "result": "greater than 64 ug/ml"},
      {"measurement": "MIC", "setting": "E. coli", "result": "greater than 64 ug/ml"}
    ]},
    {"smiles": "CC[C@H](C)[C@H](NC(=O)CN)C(=O)NCC(=O)N[C@@H](C)C(=O)N[C@H](C(=O)N[C@@H](CC(C)C)C(=O)N[C@@H](CCCCN)C(=O)N[C@H](C(=O)N[C@@H](CC(C)C)C(=O)N[C@H](C(=O)N[C@H](C(=O)NCC(=O)N[C@@H](CC(C)C)C(=O)N1CCC[C@H]1C(=O)N[C@@H](C)C(=O)N[C@@H](CC(C)C)C(=O)N[C@H](C(=O)N[C@@H](CO)C(=O)N[C@@H](Cc1c[nH]c2ccccc12)C(=O)N[C@H](C(=O)N[C@@H](CCCCN)C(=O)N[C@@H](CCCNC(=N)N)C(=O)N[C@@H](CCCCN)C(=O)N[C@@H](CCCNC(=N)N)C(=O)N[C@@H](CCC(N)=O)C(=O)N[C@@H](CCC(N)=O)C(N)=O)[C@@H](C)CC)[C@@H](C)CC)[C@@H](C)O)[C@@H](C)O)C(C)C)C(C)C", "note": "[Melittin, melittin]", "values": [
      {"measurement": "permeabilization of outer membrane to lysozyme", "setting": "[2]", "result": "did not appear to be a good permeabilizer"},
      {"measurement": "antibacterial activity on overlaid gel", "setting": "E. coli strain DC2", "result": "zones of clearing"},
      {"measurement": "activity in opening up the membrane to NPN", "setting": "[3]", "result": "less active"}
    ]}
  ]
}
